Reference: patent publication US11523610B2, “Regulating plant growth using a diapocarotenoid” (King Abdullah University of Science and Technology, priority 2018, dated 2022)

Experiments:
[1] = system: Arabidopsis seedlings (anchor roots); experiment: Anchor root (ANR) emergence/formation in seedlings without RAM excision; assay type: in vivo; details: for seedlings forming ANRs: no RAM excision, 8 DAG
Experimental: Sterilized Col-0 and mutants seeds were kept at 4° C. in darkness for 3 days to stimulate seed germination, and then sown on half strength MSO plates (with 0.5% sucrose +1% agar, 0.5g/L MES, pH 5.7) supplemented with the indicated chemicals as described below or in the Figures. Plates were vertically grown in PERCIVAL® growth chambers under long day (16 h light/8 h dark, 22° C., 60% relative humidity, light density: 4000 LUX) LED white light [HYPERIKON® 16 W LED Light Bulb A21, 16 W (100 W Equivalent), CRI92, 1620 Lumens, 4000K (Daylight Glow)] conditions. Light fluorescence rates were measured using a digital LUX meter (PEAKTECH® 5025).
(§1) ANRs were counted in seedlings vertically grown on half strength MS (with 0.5% sucrose +1% agar, 0.5 g/L MES, pH 5.7) media 8 days post-stratification (dps) using a dissection microscope. To investigate ANR formation after root apical meristems (RAM) excision (ANR-RE), RAM of seedlings were excised using sterile scalpels at 5 dps and then grown for another 3 days prior to counting the number of emerged ANRs. RAM of seedlings were excised at 8 dps and then grown for another 3 days prior to counting the number of emerged LRs. For determining the effect of anchorene on lateral roots, the number of emerged lateral roots were counted using a dissection microscope at 8 dps. For primary root length measurements, seedlings were measured using the publicly available ImageJ software (downloaded from rsbweb.nih.gov/ij/) after taking digital photographs. For adventitious root assay, the number of emerged adventitious roots per plant were counted after 5 days of treatment on plates with or without anchorene.
Prior to the anchor root (ANR) measurements, seeds from 10 ecotypes (Po-0, Is-0, Wu-0, Col-0, Cvi-0, Hi-0, Ove-0, Sav-0, Ler and Kin-0) were harvested from plants grown in long-day photoperiod conditions (16h light/8 h darkness, 22° C., 60% humidity). Seeds of all 10 ecotypes were surfaced sterilized and incubated in sterile water at 4° C. for 8 days, for uniform germination. Natural ANR emergence and ANRC was measured as described above (Anchor root assays) for each ecotype. 20 μM anchorene was used to test the responses of the Po-0 and Is-0 ecotypes to anchorene.
Excision of the root apical meristems (RAM) triggers ANR formation (FIGS. 3C-D). […] About 9% of control Col-0 seedlings developed ANRs under normal conditions, while approximately 50% formed ANRs upon RAM excision (FIGS. 4B-C). […] Higher anchorene concentrations (10 and 20 μM) enhanced this ratio to 97% and 100%, respectively (FIGS. 4B-C). There was also an increase in the number of seedlings that developed two ANRs from 0% in the untreated control to approximately 80% upon application of 20 μM anchorene (FIGS. 4B-C). Using a wide range of concentrations, a dose-response curve was established in the presence and absence of RAM excision. […] Thus, the promotion of ANRs is not caused by inhibiting primary root growth.

[2] = system: pDR5::LUC seedlings; experiment: Luciferase assay in pDR5::LUC auxin marker line; assay type: in vivo, Arabidopsis; details: 1 μM NF, 20 μM anchorene
Experimental: Luciferase activity was assayed as previously described. Briefly, 1 mL of 5 mM Potassium Luciferin (Gold Biotechnology®) dissolved in water was directly applied to pDR5:LUC seedlings grown vertically on treated half strength MS plates. The luciferin solution was allowed to dry for 5-10 minutes in the dark, at room temperature. Seedlings were then imaged using a Lumazone™ CA automated Chemiluminescence system. Seven minute exposure times were used.
A pDR5::LUC line, which marks LR prebranch sites, was used to track ANR development. […] ANR primordia initiation was observed as early as 3 dps, in anchorene treated pDR5::LUC and 158 pDR5rev::GFP seedling (FIGS. 5A-C).

[3] = system: Arabidopsis seedlings (anchor roots after RAM excision); experiment: ANR formation after root apical meristem excision (ANR-RE); assay type: in vivo
Text: as §1
ANR formation under carotenoid-deficient conditions was monitored to determine the role of endogenous carotenoids in ANR development. […] Therefore, ANR formation was monitored after RAM excision (ANR-RE) to stimulate ANR development. ANR measurements were used as an indicator of ANR formation capacity under different conditions. […] Norflurazon (NF) and 2-(4-chlorophenylthio)-triethylamine hydrochloride (CPTA), which block phytoene desaturation and lycopene cyclization, respectively were tested (FIG. 6A). The effect of D15, an inhibitor of CCDs was also investigated. Application of D15 to Arabidopsis seedlings is known to lead to an increase in carotenoid levels.

[4] = system: Arabidopsis seedlings (root gravitropism); experiment: Root gravitropism of NPA treated seedlings; assay type: in vivo; details: 5 DAG seedlings, 1 μM NPA plus 20 μM anchorene
Experimental: To determine if the effect of anchorene on ANR development is caused by changes in auxin distribution, the activity of anchorene in the presence of NPA was evaluated. […] Vertical grown 5 DAG seedlings on half MSO with indicated treatments were analyzed. The orientation of root growth was measured and then was assigned to one of twelve 30° sectors. […] The auxin efflux carrier PIN3 plays an important role in LR initiation and emergence. Therefore, the effect of anchorene on PIN3 using the pPIN3::PIN3-GFP marker line was examined.

[5] = system: rice (Nipponbare); experiment: Rice hydroponic growth with anchorene; assay type: in vivo; details: 20 μM anchorene, 6 days
Experimental: FIGS. 19A-E show anchorene promotes root growth in rice according to one or more embodiments of the present disclosure. […] Color photographs (B) and (C) show the comparison of the whole rice plant (B) and the root structure (C) under Mock and Anchorene treated conditions. (D) and (E) show quantification (cm) of the primary root length (D) and shoot length (E) under Mock and Anchorene treated conditions. 20 μM anchorene was used. The Nipponbare ecotype rice seeds were germinated for 4 days, and then transferred to Hoagland media hydroponic system with or without anchorene treatment for another 6 days. Anchorene was changed every 2 days for three times.
For rice, sterilized Nipponbare seeds were kept at 30° C. in darkness for 1 day to stimulate germination and transferred to Petri dishes with half strength Murashige and Skoog (MS) media (with 0.5 g/L MES, pH 5.7) and autoclaved filter paper. Dishes were incubated in darkness for 2 days then exposed to light for 1 day in PERCIVAL® growth chamber (12 h light/12 h dark, 26° C., 55% humidity, 500 umol.m^−2.s^−1). Uniform, healthy rice seedlings were transferred to hydroponic culture (Hoagland) supplied with acetone (Mock) or 20 μM anchorene. […] Crown roots number, as well as shoot and root length and fresh weight were recorded to perform the phenotyping.

## C\C(C=O)=C/C=C/C=C(\C)C=O [anchorene, 12,12′-diapocarotene-12,12′-dial]
[1]; 5 μM, control about 9%
  seedlings forming ANRs: 55%
[1]; 10 μM
  seedlings forming ANRs: 97%
[1]; 20 μM
  seedlings forming ANRs: 100%
[1]; 20 μM, untreated control 0%
  seedlings that developed two ANRs: approximately 80%
[1]; Col-0, Is-0 and Po-0, 20 μM anchorene
  ANR emergence in different Arabidopsis ecotypes: promotes ANR emergence
[1]; screen at 5 or 25 μM
  ANR formation: promotion of ANR formation
[1]; wide range of concentrations, in presence and absence of RAM excision (FIG. 3J)
  dose-response of ANR formation: dose dependent
[2]
  LUC signal in the collet: intensified the LUC signal
[3]; 20 μM anchorene simultaneous with 1 μM NF or 100 μM CPTA
  rescue of ANR-RE in carotenoid biosynthesis inhibitor treated seedlings: blocked inhibition of ANR-RE
[3]; 20 μM anchorene with 1 μM NPA
  rescue of ANR-RE in NPA treated seedlings: partially compensated
[3]; arf7arf19, 20 μM anchorene or after RAM excision
  ANR formation in arf7arf19 double mutant: did not form any ANR
[3]; psy mutant, 20 μM anchorene
  rescue of ANR-RE in psy mutant: restored wild-type ANR-RE
[4]
  gravitropism in NPA treated seedlings: largely restored
[5]
  rice primary root and crown root growth: clear effect
  rice shoot growth: not observed
